Key:
Type in all cases: in vivo
Setaria faberi (SETFA) [1] = test: Pre-emergence biological efficacy, glasshouse pot test; details: 312 h, pre-emergence, 1,000 g/ha, evaluated after 13 days (100=total damage; 0=no damage), read-out: Percentage damage SETFA
Outline: (§1)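 Seeds sown in standard soil in pots, held one day in glasshouse (24/16 °C day/night, 14 h light, 65% humidity), then sprayed with aqueous solution from acetone/water (50:50) formulation with 0.5% Tween 20 at 1000 or 250 g/ha. Damage scored after 13 days (0 = none, 100 = total).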

[2] = test system: Echinochloa crus-galli (ECHCG); test: as above; details: 312 h, pre-emergence, 1,000 g/ha, evaluated after 13 days (100=total damage; 0=no damage), read-out: Percentage damage ECHCG
Outline: as §1

[3] = test system: Amaranthus retoflexus (AMARE); test: as above; details: Amaranthus retroflexus, 312 h; pre-emergence, 1,000 g/ha, evaluated after 13 days (100=total damage; 0=no damage); read-out: Percentage damage AMARE
Outline: as §1

[4] = test system: Alopecurus myosuroides (ALOMY); test: as above; details: 312 h, pre-emergence, 1,000 g/ha, evaluated after 13 days (100=total damage; 0=no damage), read-out: Percentage damage ALOMY
Outline: as §1

[5] = test system: Ipomea hederaceae (IPOHE); test: as above; details: Ipomoea hederacea, 312 h; pre-emergence, 1,000 g/ha, evaluated after 13 days (100=total damage; 0=no damage); read-out: Percentage damage IPOHE
Outline: as §1

Solanum nigrum (SOLNI) [6] = test: as above; details: 312 h, pre-emergence, 1,000 g/ha, evaluated after 13 days (100=total damage; 0=no damage), read-out: Percentage damage SOLNI
Outline: as §1

Setaria faberi (SETFA) [7] = test: Post-emergence biological efficacy, glasshouse pot test; details: 312 h, post-emergence, 1,000 g/ha, evaluated after 13 days (100=total damage; 0=no damage), read-out: Percentage damage caused to weed species, SETFA
Outline: (§2)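 Plants were sown in standard soil and grown 8 days in a glasshouse (24/16° C. day/night, 14 hours light, 65% humidity), then sprayed post-emergence at 1000 or 250 g/ha from acetone/water (50:50) with 0.5% Tween 20. Damage was scored visually after 13 days (0 = none, 100 = total).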

[8] = test system: Echinochloa crus-galli (ECHCG); test: as above; details: 312 h, post-emergence, 1,000 g/ha, evaluated after 13 days (100=total damage; 0=no damage), read-out: Percentage damage caused to weed species, ECHCG
Outline: as §2

[9] = test system: Amaranthus retoflexus (AMARE); test: as above; details: Amaranthus retroflexus, 312 h; post-emergence, 1,000 g/ha, evaluated after 13 days (100=total damage; 0=no damage); read-out: Percentage damage caused to weed species, AMARE
Outline: as §2

[10] = test system: Alopecurus myosuroides (ALOMY); test: as above; details: 312 h, post-emergence, 1,000 g/ha, evaluated after 13 days (100=total damage; 0=no damage), read-out: Percentage damage caused to weed species, ALOMY
Outline: as §2

[11] = test system: Ipomea hederaceae (IPOHE); test: as above; details: Ipomoea hederacea, 312 h; post-emergence, 1,000 g/ha, evaluated after 13 days (100=total damage; 0=no damage); read-out: Percentage damage caused to weed species, IPOHE
Outline: as §2

Solanum nigrum (SOLNI) [12] = test: as above; details: 312 h, post-emergence, 1,000 g/ha, evaluated after 13 days (100=total damage; 0=no damage), read-out: Percentage damage caused to weed species, SOLNI
Outline: as §2

SMILES: COC(=O)c1nc(C2CC2)nc(NCC(C)c2ccc(Cl)cc2)c1Cl (stereo not drawn) [Compound 4-233, 5-Chloro-4-[2-(4-chlorophenyl)propyl-amino]-2-cyclopropyl-6-methoxycarbonyl-pyrimidine]
- pest or weed control at 1000 g/ha (Setaria faberi (SETFA) [1]): 0%
- pest or weed control at 1000 g/ha [2]: 0%
- pest or weed control at 1000 g/ha [3]: 40%
- pest or weed control at 1000 g/ha [4]: 0%
- pest or weed control at 1000 g/ha [5]: 10%
- pest or weed control at 1000 g/ha (Solanum nigrum (SOLNI) [6]): 20%
- pest or weed control at 1000 g/ha (Setaria faberi (SETFA) [7]): 50%
- pest or weed control at 1000 g/ha [8]: 20%
- pest or weed control at 1000 g/ha [9]: 100%
- pest or weed control at 1000 g/ha [10]: 10%
- pest or weed control at 1000 g/ha [11]: 60%
- pest or weed control at 1000 g/ha (Solanum nigrum (SOLNI) [12]): 80%

SMILES: COC(=O)c1nc(C2CC2)nc(NCC(F)c2ccccc2Br)c1Cl (stereo not drawn) [Compound 4-234, 4-[2-(2-Bromophenyl)-2-fluoro-ethylamino]-5-chloro-2-cyclopropyl-6-methoxycarbonyl-pyrimidine]
- pest or weed control at 1000 g/ha (Setaria faberi (SETFA) [1]): 0%
- pest or weed control at 1000 g/ha [2]: 0%
- pest or weed control at 1000 g/ha [3]: 10%
- pest or weed control at 1000 g/ha [4]: 0%
- pest or weed control at 1000 g/ha [5]: 0%
- pest or weed control at 1000 g/ha (Solanum nigrum (SOLNI) [6]): 0%
- pest or weed control at 1000 g/ha (Setaria faberi (SETFA) [7]): 30%
- pest or weed control at 1000 g/ha [8]: 20%
- pest or weed control at 1000 g/ha [9]: 90%
- pest or weed control at 1000 g/ha [10]: 0%
- pest or weed control at 1000 g/ha [11]: 60%
- pest or weed control at 1000 g/ha (Solanum nigrum (SOLNI) [12]): 70%

SMILES: COC(=O)c1nc(C2CC2)nc(NCC(F)c2ccc(Br)cc2)c1Cl (stereo not drawn) [Compound 4-236, 4-[2-(4-Bromophenyl)-2-fluoro-ethylamino]-5-chloro-2-cyclopropyl-6-methoxycarbonyl-pyrimidine]
- pest or weed control at 1000 g/ha (Setaria faberi (SETFA) [1]): 0%
- pest or weed control at 1000 g/ha [2]: 0%
- pest or weed control at 1000 g/ha [3]: 0%
- pest or weed control at 1000 g/ha [4]: 0%
- pest or weed control at 1000 g/ha [5]: 0%
- pest or weed control at 1000 g/ha (Solanum nigrum (SOLNI) [6]): 60%
- pest or weed control at 1000 g/ha (Setaria faberi (SETFA) [7]): 40%
- pest or weed control at 1000 g/ha [8]: 0%
- pest or weed control at 1000 g/ha [9]: 100%
- pest or weed control at 1000 g/ha [10]: 0%
- pest or weed control at 1000 g/ha [11]: 60%
- pest or weed control at 1000 g/ha (Solanum nigrum (SOLNI) [12]): 70%

SMILES: COC(=O)c1nc(C2CC2)nc(NCC(F)c2cccc(C(F)(F)F)c2)c1Cl (stereo not drawn) [Compound 4-237, 5-Chloro-2-cyclopropyl-4-[2-fluoro-2-(3-trifluoromethyl-phenyl)ethylamino]-6-methoxy-carbonylpyrimidine]
- pest or weed control at 1000 g/ha (Setaria faberi (SETFA) [1]): 0%
- pest or weed control at 1000 g/ha [2]: 0%
- pest or weed control at 1000 g/ha [3]: 30%
- pest or weed control at 1000 g/ha [4]: 0%
- pest or weed control at 1000 g/ha [5]: 10%
- pest or weed control at 1000 g/ha (Solanum nigrum (SOLNI) [6]): 0%
- pest or weed control at 1000 g/ha (Setaria faberi (SETFA) [7]): 40%
- pest or weed control at 1000 g/ha [8]: 30%
- pest or weed control at 1000 g/ha [9]: 100%
- pest or weed control at 1000 g/ha [10]: 0%
- pest or weed control at 1000 g/ha [11]: 60%
- pest or weed control at 1000 g/ha (Solanum nigrum (SOLNI) [12]): 70%

SMILES: COC(=O)c1nc(C2CC2)nc(NCC(F)c2ccc(F)cc2F)c1Cl (stereo not drawn) [Compound 4-238, 5-Chloro-2-cyclopropyl-4-[2-(2,4-difluoro-phenyl)-2-fluoro-ethylamino]-6-methoxycarbonyl-pyrimidine]
- pest or weed control at 1000 g/ha (Setaria faberi (SETFA) [1]): 0%
- pest or weed control at 1000 g/ha [2]: 0%
- pest or weed control at 1000 g/ha [3]: 10%
- pest or weed control at 1000 g/ha [4]: 0%
- pest or weed control at 1000 g/ha [5]: 0%
- pest or weed control at 1000 g/ha (Solanum nigrum (SOLNI) [6]): 50%
- pest or weed control at 1000 g/ha (Setaria faberi (SETFA) [7]): 0%
- pest or weed control at 1000 g/ha [8]: 0%
- pest or weed control at 1000 g/ha [9]: 90%
- pest or weed control at 1000 g/ha [10]: 10%
- pest or weed control at 1000 g/ha [11]: 60%
- pest or weed control at 1000 g/ha (Solanum nigrum (SOLNI) [12]): 70%

SMILES: COC(=O)c1nc(C2CC2)nc(NCC(F)c2ccc(Cl)cc2Cl)c1Cl (stereo not drawn) [Compound 4-239, 5-Chloro-2-cyclopropyl-4-[2-(2,4-dichlorophenyl)-2-fluoro-ethylamino]-6-methoxycarbonyl-pyrimidine]
- pest or weed control at 1000 g/ha (Setaria faberi (SETFA) [1]): 0%
- pest or weed control at 1000 g/ha [2]: 0%
- pest or weed control at 1000 g/ha [3]: 20%
- pest or weed control at 1000 g/ha [4]: 0%
- pest or weed control at 1000 g/ha [5]: 10%
- pest or weed control at 1000 g/ha (Solanum nigrum (SOLNI) [6]): 0%
- pest or weed control at 1000 g/ha (Setaria faberi (SETFA) [7]): 20%
- pest or weed control at 1000 g/ha [8]: 0%
- pest or weed control at 1000 g/ha [9]: 90%
- pest or weed control at 1000 g/ha [10]: 0%
- pest or weed control at 1000 g/ha [11]: 50%
- pest or weed control at 1000 g/ha (Solanum nigrum (SOLNI) [12]): 60%

SMILES: COC(=O)c1nc(C2CC2)nc(NCC(F)c2ccc(Br)cc2F)c1Cl (stereo not drawn) [Compound 4-240, 4-[2-(4-Bromo-2-fluorophenyl)-2-fluoro-ethylamino]-5-chloro-2-cyclopropyl-6-methoxycarbonyl-pyrimidine]
- pest or weed control at 1000 g/ha (Setaria faberi (SETFA) [1]): 0%
- pest or weed control at 1000 g/ha [2]: 0%
- pest or weed control at 1000 g/ha [3]: 30%
- pest or weed control at 1000 g/ha [4]: 0%
- pest or weed control at 1000 g/ha [5]: 0%
- pest or weed control at 1000 g/ha (Solanum nigrum (SOLNI) [6]): 10%
- pest or weed control at 1000 g/ha (Setaria faberi (SETFA) [7]): 30%
- pest or weed control at 1000 g/ha [8]: 0%
- pest or weed control at 1000 g/ha [9]: 100%
- pest or weed control at 1000 g/ha [10]: 10%
- pest or weed control at 1000 g/ha [11]: 60%
- pest or weed control at 1000 g/ha (Solanum nigrum (SOLNI) [12]): 70%

SMILES: COC(=O)c1nc(C2CC2)nc(NCC(C)(F)c2cccc(Cl)c2)c1Cl (stereo not drawn) [Compound 4-241, 5-Chloro-4-[2-(3-chlorophenyl)-2-fluoro-propylamino]-2-cyclopropyl-6-methoxycarbonyl-pyrimidine]
- pest or weed control at 1000 g/ha (Setaria faberi (SETFA) [1]): 0%
- pest or weed control at 1000 g/ha [2]: 0%
- pest or weed control at 1000 g/ha [3]: 30%
- pest or weed control at 1000 g/ha [4]: 0%
- pest or weed control at 1000 g/ha [5]: 0%
- pest or weed control at 1000 g/ha (Solanum nigrum (SOLNI) [6]): 0%
- pest or weed control at 1000 g/ha (Setaria faberi (SETFA) [7]): 30%
- pest or weed control at 1000 g/ha [8]: 10%
- pest or weed control at 1000 g/ha [9]: 60%
- pest or weed control at 1000 g/ha [10]: 0%
- pest or weed control at 1000 g/ha [11]: 60%
- pest or weed control at 1000 g/ha (Solanum nigrum (SOLNI) [12]): 70%

SMILES: COC(=O)c1nc(C2CC2)nc(NCC(C)(F)c2cccc(C(F)(F)F)c2)c1Cl (stereo not drawn) [Compound 4-242, 5-Chloro-2-cyclopropyl-4-[2-fluoro-2-(3-trifluoromethyl-phenyl)propyl-amino]-6-methoxy-carbonylpyrimidine]
- pest or weed control at 1000 g/ha (Setaria faberi (SETFA) [1]): 0%
- pest or weed control at 1000 g/ha [2]: 0%
- pest or weed control at 1000 g/ha [3]: 10%
- pest or weed control at 1000 g/ha [4]: 0%
- pest or weed control at 1000 g/ha [5]: 10%
- pest or weed control at 1000 g/ha (Solanum nigrum (SOLNI) [6]): 0%
- pest or weed control at 1000 g/ha (Setaria faberi (SETFA) [7]): 10%
- pest or weed control at 1000 g/ha [8]: 0%
- pest or weed control at 1000 g/ha [9]: 90%
- pest or weed control at 1000 g/ha [10]: 0%
- pest or weed control at 1000 g/ha [11]: 50%
- pest or weed control at 1000 g/ha (Solanum nigrum (SOLNI) [12]): 60%

SMILES: COC(=O)c1nc(C2CC2)nc(NCC(C)(F)c2ccc(Cl)cc2Cl)c1Cl (stereo not drawn) [Compound 4-243, 5-Chloro-2-cyclopropyl-4-[2-(2,4-dichlorophenyl)-2-fluoro-propylamino]-6-methoxycarbonyl-pyrimidine]
- pest or weed control at 1000 g/ha (Setaria faberi (SETFA) [1]): 0%
- pest or weed control at 1000 g/ha [2]: 0%
- pest or weed control at 1000 g/ha [3]: 40%
- pest or weed control at 1000 g/ha [4]: 0%
- pest or weed control at 1000 g/ha [5]: 0%
- pest or weed control at 1000 g/ha (Solanum nigrum (SOLNI) [6]): 10%
- pest or weed control at 1000 g/ha (Setaria faberi (SETFA) [7]): 20%
- pest or weed control at 1000 g/ha [8]: 10%
- pest or weed control at 1000 g/ha [9]: 80%
- pest or weed control at 1000 g/ha [10]: 0%
- pest or weed control at 1000 g/ha [11]: 60%
- pest or weed control at 1000 g/ha (Solanum nigrum (SOLNI) [12]): 70%

From patent US20110086759A1, “CHEMICAL COMPOUNDS” (SYNGENTA CROP PROTECTION, INC., priority 2007, published 2011)
